Reference: patent publication US7691874B2, “Neuroprotective properties of dextrorotatory morphinans” (priority 2004, dated 2010)
Marks after values point to notes of the source that are not given here.

Assays:
MPTP-treated mice [1] = assay: Striatal dopamine and metabolites (HPLC-EC) in MPTP-treated mice; settings: for Concentration DA in the striatum: mean ± S.E.M., 8 animals
Description: (§2) Each morphinan was administered 30 min prior to every injection of MPTP for last three days (from day 4th to day 7th). Animals were sacrificed 24 h after the last MPTP treatment.
Brains were rapidly removed and cut into 1 mm coronal sections on ice. The striatum was punched using a fine pasteur pipette (3, 21, 22), and stored at −70° C. DA and its metabolites, 3,4-dihydroxyphenylacetic acid (DOPAC) and homovanilic acid (HVA) were measured by HPLC-eletrochemical detection (3, 21, 22). Briefly, the striatum was homogenized in 0.2 M perchloric acid containing 3,4-dihydroxybenzylamine as an internal standard (10 mg wet weight of tissue per ml). The homogenate was centrifuged and a 20-μl aliquot of the supernatant was injected into the HPLC equipped with an ODS-C18 column. The mobile phase was comprised of 26 ml of acetonitrile, 21 ml of tetrahydrofuran and 960 ml of 0.15 M monochloroacetic acid (pH 3.0) containing 50 mg/l of EDTA and 200 mg/l of sodium octyl sulfate. The amount of DA, DOPAC and HVA were determined by comparison of peak height ratio of tissue sample with standards, and were expressed in nanograms per 100 mg of wet weight of tissue.
Each morphinan was administered 30 min before every injection of MPTP for last three days. Animals were sacrificed at 24 h after the last MPTP injection.

MA-treated mice [2] = assay: MA-induced behavioural sensitization; settings: morphinan 20 mg/kg i.p., last 3 days of wash-out (Ex. 3.12)
Description: Morphinans (20 mg/kg, i.p.) were administered last 3 days of wash-out period.

LPS-treated mice [3] = assay: Nigral TH-IR in LPS-treated mice; assay type: in vivo; settings: 24 mg/kg i.p.
From the text: FIGS. 8A-8B. […] Magnification=40×.
(§1) Control animals received striatal injection with PBS.

MPTP-treated mice [4] = assay: Hypokinesia (reduction in locomotor activity) induced by MPTP; assay type: in vivo; settings: 12 or 24 mg/kg i.p. 30 min before MPTP (20 mg/kg/day x 7), last three days
MPTP-treated mice [5] = assay: Nigral tyrosine hydroxylase-like immunoreactivity in MPTP-treated mice; settings: 24 mg/kg i.p.
Description: as §2

σ1 receptors = σ1 receptors (Homo sapiens, UniProt Q99720); settings: cited from earlier work
cocaine-treated mice [6] = assay: Cocaine-induced Fos-related antigen-immunoreactivity (FRA-IR) in the striatum; settings: cocaine 5 mg/kg; morphinan 20 mg/kg i.p.
LPS-treated mice [7] = assay: Hypokinesia induced by intrastriatal LPS; settings: 12 or 24 mg/kg, twice before bilateral intrastriatal LPS
Description: Male mice were anesthetized with chloral hydrate (200 mg/kg, i.p.) and positioned in a small-animal stereotaxic apparatus. […] LPS (2 μg in a volume of 2 μl of PBS) was injected into both sides of the striatum over a period of 2 min, and the injection needle was kept in place for 2 min after the injection. Control animals received striatal injection with PBS.
Ten min after the last treatment with each drug, locomotor activity was measured for 30 min. After measuring the locomotor activity (i.e. 40 min after the last drug injection), the ‘absolute turn angular’ was analyzed in a 3-min monitoring period using an automated video-tracking system (Noldus Information Technology, Wagenin, The Netherlands) to examine locomotor patterns. […] Eight test boxes (40×40×30 cm high) were operated simultaneously by an IBM computer. Animals were studied individually during locomotion in each test box, where they were adapted for 10 min before starting the experiment. […] The distance traveled in cm by the animals in horizontal locomotor activity was analyzed (13, 25, 27). Data were collected and analyzed between 0900 and 1700 hr.

LPS-treated mice [8] = assay: Striatal dopamine and metabolites in LPS-treated mice; assay type: in vivo; settings: for Concentration DA in the striatum: 3 weeks after LPS
From the text: as §1
Mice were sacrificed at 3 weeks after LPS treatment.

[9] = test system: kainate or maximal electric shock; settings: kainate (24) or maximal electric shock (27); cited from earlier work
C57 BL/6 mice [10] = assay: Locomotor activity and locomotor pattern following repeated administration of morphinans or PCP; assay type: in vivo
MA-treated mice [11] = assay: MA-induced hyperlocomotion; assay type: in vivo; settings: morphinan 20 mg/kg i.p. 30 min before MA 1 mg/kg i.p./day x 7
Description: FIGS. 39A-39D show effect of morphinans on the MA-induced hyperactivity in the mice. Each morphinan (20 mg/kg, i.p.) was administered 30 minutes prior to MA (1 mg/kg, i.p.). All treatments were performed for 7 days.

MA-treated mice [12] = assay: Striatal dopamine and metabolites in MA-treated mice; assay type: in vivo; settings: for Concentration DA in the striatum: 3 days after final MA
From the text: Mice were sacrificed at 3 days after final MA injection.

cocaine-treated mice [13] = assay: Cocaine-induced hyperlocomotion; assay type: in vivo
Description: FIGS. 34A-34B show effect of morphinans on the cocaine-induced hyperactivity in the mice. Morphinans (15 and 30 mg/kg, i.p.) were administered 30 minutes prior to cocaine (5 and 20 mg/kg, i.p.). Central activity means relatively non-specific locomotor activity in the center of the box. Marginal activity means circling behaviors. All treatments were performed for 7 days.
FIGS. 35A-35D show effect of dimemorfan (DF) on cocaine-induced hyperactivity in the mice. DF (20 mg/kg, i.p.) was administered 30 minutes prior to cocaine (5 and 20 mg/kg, i.p.). All treatments were performed for 7 days.

C57 BL/6 mice [14] = assay: Conditioned place preference (psychological dependence) following repeated administration of morphinans or PCP; assay type: in vivo; settings: 20 or 40 mg/kg i.p. (PCP 2.5 or 5 mg/kg); vs saline
Description: On day 14, the guillotine doors were raised. […] Data were analyzed between 0900 and 1700 hr.

MA-treated mice [15] = assay: MA-induced FRA-IR in the striatum; settings: morphinan 20 mg/kg i.p.; MA 1 mg/kg i.p./day x 7
Description: Therefore, brains were removed and used for immunocytochemical analysis at 18 h after the final cocaine/MA treatment. The coronal sections containing striatum were processed for FRA immunocytochemistry. […] The FRA antibody was used at 1:2,000 as the optimal dilution. The FRA-IR in the striatum was calculated using image analysis systems with a polaroid digital microscopic camera (Optimas version 6.2).

MA-treated mice [16] = assay: Nigral TH-IR in MA-treated mice; settings: 24 mg/kg i.p.
MA-treated mice [17] = assay: Methamphetamine (MA)-induced hyperthermia; assay type: in vivo; settings: 24 mg/kg; MA 7.5 mg/kg i.p. x 4 at 2-h intervals
Description: Rectal temperature was recorded at 40 min after each MA treatment. […] Mice were sacrificed at 3 days after final MA injection.
FIGS. 10A-10B show effect of morphinans on the methamphetamine (MA)-induced hyperthermia. Mice received i.p. injections of MA (four injections of 7.5 mg/kg each) at 2-h intervals under the ambient temperature of 22.0±0.5° C. Temperatures were recorded at 40 min after each MA treatment (Arrow=MA injection).

MA-treated mice [18] = assay: Hypokinesia induced by MA; assay type: in vivo; settings: 12 and 24 mg/kg; 3 days after final MA

σ1 receptors, sequence (Q99720 whole entry): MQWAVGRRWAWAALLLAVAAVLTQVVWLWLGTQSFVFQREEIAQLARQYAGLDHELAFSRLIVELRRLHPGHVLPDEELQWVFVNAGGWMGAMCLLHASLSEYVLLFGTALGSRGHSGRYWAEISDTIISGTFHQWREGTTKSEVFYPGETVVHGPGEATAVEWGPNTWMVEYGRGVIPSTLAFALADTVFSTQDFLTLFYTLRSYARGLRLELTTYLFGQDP

## COc1ccc2c(c1)[C@@]13CCCC[C@H]1[C@@H](C2)N(C)CC3 [DM, 3-methoxy-17-methylmorphinan, reference compound]
MPTP-treated mice [1]; 24 mg/kg pretreatment
  effect on MPTP-induced reductions in striatal DA, DOPAC and HVA: significantly protected
MPTP-treated mice [1]; morphinan 12 (mg/kg) + MPTP
  Concentration DOPAC in the striatum: 69 ± 9 ng/100 mg wet tissue
  Concentration HVA in the striatum: 82 ± 9 ng/100 mg wet tissue
  Concentration DA in the striatum: 520 ± 67 ng/100 mg wet tissue
MPTP-treated mice [1]; morphinan 24 (mg/kg) + MPTP
  Concentration DOPAC in the striatum: 85 ± 10^b ng/100 mg wet tissue
  Concentration HVA in the striatum: 98 ± 11^b ng/100 mg wet tissue
  Concentration DA in the striatum: 708 ± 82^b ng/100 mg wet tissue
MA-treated mice [2]
  effect on MA-induced behavioural sensitization: did not alter behavioural sensitization by MA
LPS-treated mice [3]
  effect on LPS-induced reduction in nigral TH-positive cells: significantly attenuated the reduction in TH-positive cells
MPTP-treated mice [4]
  effect on MPTP-induced reduction in locomotor activity: significantly prevented MPTP-induced reduction in locomotor activity
MPTP-treated mice [5]
  effect on MPTP-induced decrease in nigral TH-positive cells: significantly attenuated the decrease in TH-positive cells
σ1 receptors
  affinity for σ1 receptors: high affinity ligands
cocaine-treated mice [6]
  effect on cocaine-induced FRA-IR in the striatum: Neither DM nor MM affects this induction of FRA-IR
LPS-treated mice [7]
  effect on LPS-induced decrease in locomotor activity: significantly prevented LPS-induced decrease in locomotor activity
LPS-treated mice [8]; 24 mg/kg pretreatment
  effect on LPS-induced reductions in striatal DA, DOPAC and HVA: significantly protected
LPS-treated mice [8]; morphinan 12 (mg/kg) + LPS
  Concentration DOPAC in the striatum: 68 ± 7 ng/100 mg wet tissue
  Concentration HVA in the striatum: 82 ± 9 ng/100 mg wet tissue
LPS-treated mice [8]; morphinan 12 (mg/kg) + LPS, mean ± S.E.M., 8 animals
  Concentration DA in the striatum: 612 ± 76 ng/100 mg wet tissue
LPS-treated mice [8]; morphinan 24 (mg/kg) + LPS
  Concentration DOPAC in the striatum: 105 ± 12^b ng/100 mg wet tissue
  Concentration HVA in the striatum: 98 ± 8^b ng/100 mg wet tissue
  Concentration DA in the striatum: 892 ± 92^d ng/100 mg wet tissue
[9]
  anticonvulsant effect: exhibited anticonvulsant effects
C57 BL/6 mice [10]; 40 mg/kg i.p. (PCP 5 mg/kg), FIG. 3
  locomotor pattern (tracings): produced marginal activity
C57 BL/6 mice [10]; 20 or 40 mg/kg i.p./day x 7 (PCP 2.5 or 5 mg/kg), 3-min period, vs saline
  marginal activity (circling behaviour; absolute turn angular): significant increase in marginal activity
C57 BL/6 mice [10]; 20 or 40 mg/kg i.p./day x 7 days, 30 min after final treatment, vs saline
  locomotor activity (total distance moved): significantly increased locomotor activity
MA-treated mice [11]
  effect on MA-induced hyperlocomotion: did not affect MA (1 mg/kg, i.p./day×7)-induced hyperactivity
MA-treated mice [12]; 24 mg/kg pretreatment
  effect on MA-induced reductions in striatal DA, DOPAC and HVA: significantly protected
MA-treated mice [12]; morphinan 12 (mg/kg) + MA
  Concentration DOPAC in the striatum: 83 ± 9 ng/100 mg wet tissue
  Concentration HVA in the striatum: 82 ± 9 ng/100 mg wet tissue
MA-treated mice [12]; morphinan 12 (mg/kg) + MA, mean ± S.E.M., 8 animals
  Concentration DA in the striatum: 625 ± 74 ng/100 mg wet tissue
MA-treated mice [12]; morphinan 24 (mg/kg) + MA
  Concentration DOPAC in the striatum: 98 ± 11^b ng/100 mg wet tissue
  Concentration HVA in the striatum: 94 ± 8^b ng/100 mg wet tissue
  Concentration DA in the striatum: 782 ± 72^c ng/100 mg wet tissue
cocaine-treated mice [13]; cocaine 5 mg/kg i.p. x 7 days, morphinan 15 or 30 mg/kg (DF 20 mg/kg) i.p.
  effect on locomotor activity induced by low dose of cocaine: enhanced locomotor activity produced by a low dose of cocaine
cocaine-treated mice [13]; cocaine 20 mg/kg i.p. x 7 days, morphinan 15 or 30 mg/kg i.p. 30 min before
  effect on hyperactivity induced by high dose of cocaine: attenuated
C57 BL/6 mice [14]
  conditioned place preference (CPP): also produced CPP
MA-treated mice [15]
  effect on MA-induced FRA-IR in the striatum: did not affect this induction of FRA-IR
MA-treated mice [16]
  effect on MA-induced decrease in nigral TH-positive cells: significantly attenuated the decrease in TH-positive cells
MA-treated mice [17]
  effect on MA-induced hyperthermia (rectal temperature): attenuated by all morphinans used in this study
MA-treated mice [18]
  effect on MA-induced reduction in locomotor activity: significantly prevented MA-induced reduction in locomotor activity
